Here are results for 7 compounds from article PMC11117691, “Flipping the GPCR Switch: Structure-Based Development of Selective Cannabinoid Receptor 2 Inverse Agonists” (ACS Central Science, 2024).

A word on the kon: it is a measure of how fast the partners come together. In general, Kd refers to the constant that tells how readily two partners part at equilibrium. The low end stands for a tighter complex, the high end for a looser complex. As a reminder, the Emax is the size of the effect at its maximum, as opposed to the concentration needed.

For experiment [1], the target named is T1, hCB2R (Homo sapiens, UniProt P34972). The experiment in a line: cAMP HTRF assay in hCB2R-CHO cells. The following applies: for EC50: hCB2R-CHO cells, forskolin stimulated, mean N = 3. More on the design: expressed in transfected cells. Format: cell-based. An excerpt:
One of the canonical signaling pathways of CB2R involves association with Gαi/o proteins, which elicit reversible inhibition of adenylyl cyclase resulting in a decrease of cellular cAMP levels and suppression of protein kinase A activity.[67] Consequently, we have investigated the change in cAMP levels upon probe addition using homogeneous time-resolved fluorescence (HTRF) cAMP assay (Table 3).
Homogeneous Time-Resolved Fluorescence (HTRF) cAMP assay
The homogeneous time-resolved fluorescence (HTRF) cAMP assay was conducted according to the manufacturer’s protocol for the cAMP-Gs Dynamic kit (Cisbio). Briefly, the CHO cell line stably overexpressing CB2R was maintained in Ham’s F12 supplemented with 10% FBS, penicillin (100 U/mL, Gibco-ThermoFisher), streptomycin (100 μg/mL, Gibco-ThermoFisher) and G418 (400 μg/mL, ThermoFisher). For CB2R compounds test, the cells were harvested with Cell Dissociation Buffer, resuspended in F-12 K at 0.4×10^6 cells/mL, and dispensed into 384-well low volume plates at 2000 cells/5 μL per well. The cells were stimulated with compounds diluted in Stimulation Buffer (2.5 μL/well) for 15 min at room temperature, followed by the addition of forsklin (2.5 μL 25 μM). After 15 mins incubation, reactions were stopped by 5 μL/well cAMP-d2 conjugate working solution followed by 5 μL/well of anti-cAMP cryptate working solution. After incubation for 1 h at room temperature, the plates were read in a PerkinElmer Envision reader for Time-Resolved Förster Resonance Energy Transfer (TR-FRET) at 620 nm and 665 nm.
β–arrestin recruitment assay
SNAP-tagged human CB2R HEK293-TR cells were maintained in a humidified environment at 37 °C and 5% CO2 in Dulbecco’s modified Eagle’s medium (DMEM) with 10% fetal bovine serum (FBS) containing blasticidin (5 µg/mL; Invitrogen) and (Zeocin; 20 µg/mL; Invitrogen). For receptor-inducible expression, cells were seeded into t175 cm2 flasks, grown to 70% confluence and DMEM containing 1 µg/ml tetracycline added.
HEK293TR-CB2R-nLuc cells expressing a fluorescently labelled β-arrestin protein were maintained in a humidified environment at 37 °C and 5% CO2 in Dulbecco’s modified Eagle’s medium (DMEM) with 10% fetal bovine serum (FBS) containing blasticidin (5 µg/mL; Invitrogen), Zeocin (20 µg/mL; Invitrogen) and G418 (0.2 mg/mL; Invitrogen) and used to assess compound stimulated β-arrestin recruitment to the human CB2R. Cultured cells were harvested upon reaching 70% confluency and plated at a seeding density of 50,000 cells per well. The cells were grown for 48 h until they reached confluency and then stimulated with 1 μg/mL tetracycline for a further 48 h to induce CB2R expression. Cell culture media was then aspirated from the wells and the cells were washed with assay buffer, 100 μL/well HBSS containing 0.5% BSA and 5 mM
In general terms: In TR-FRET formats the signal depends on donor and acceptor labels being close together.

Experiment [2] addresses T1, hCB2R. Kind of experiment: TR-FRET kinetic binding assay at CB2R. More on the design: expressed in transfected cells; host or cells: HEK293-TR cells, tetracycline-induced; membrane preparations. The following applies: for koff / kon / τ (receptor residence time) / Kd: hCB2R-HEK293 membranes, mean N = 3; for Kd: kinetic Kd.
In experiment [3] the target is T1, hCB2R. Format: cell-based. More on the design: expressed in transfected cells; host or cells: HEK293TR cells, tetracycline-induced, live cells. The note with it: HEK293TR-CB2R-nLuc cells, representative of N = 3.
Description: HEPES. Following the wash, assay buffer containing 10 μM furimazine, 90 μL/well was added
to the wells. The plate was then incubated at 37 °C for 15 minutes to allow the nanoLuc substrate
furimazine to enter the cells. Three BRET cycles of 1-minute intervals were performed to assess
basal BRET levels, following which 10 μL of each compound, diluted in assay buffer was added
to the assay plate, which was read at 1-minute intervals for 30 minutes.
Buffer containing 10% DMSO (1% final) served as the vehicle control and
The assay buffer used to profile compounds in the CB 2R Gi-CASE system consisted of HBSS
containing 0.02% pluronic F127, 0.5% BSA and 5 mM HEPES. The reference compounds HU -
polypropylene plate. 0.5 µL of the reference and test compound serial dilutions was then added to
a white 384 well OptiplateTM (PerkinElmer) containing 39.5 μL of assay buff er. Finally, the CB 2R
membranes containing the G i-CASE biosensor were thawed and added into assay buffer containing
50 µM furimazine. Membranes (10 μL) were added to the assay plate at a final concentration of 5
µg/well. The total assay volume was 50 µL.
In experiment [4] the target is T1, hCB2R. The experiment in a line: TR-FRET saturation binding assay at CB2R. Details: expressed in transfected cells; host or cells: HEK293-TR cells, tetracycline-induced; membrane preparations. The note with it: room temperature; for Kd: TR-FRET, HEK293 membranes of SNAP-Lumi4-Tb labeled hCB2R.
Experiment [5] concerns the target T1, hCB2R. Kind of experiment: BRET Gi-CASE G protein recruitment membrane assay. The following applies: for EC50: hCB2R-HEK293 T-REx membranes, mean N = 3–4, read-out: pEC50 (Gi-CASE G protein recruitment) (converted). More on the design: expressed in transfected cells; host or cells: HEK293-TR cells, tetracycline-induced; membrane preparations. Format: biochemical. For orientation: In BRET a luciferase serves as donor, and the signal depends on an acceptor being close.

In another experiment the test system is rat CB2R. Kind of experiment: Live cell fluorescent Ca2+ imaging (Fluo-4AM) in AtT-20(rCB2R) cells. Type of experiment: cell-based. The note with it: 20 μM, live AtT-20(rCB2R) cells; HU-308 added after (S)-3/(R)-3. Here is the method:
Live AtT-20 cells overexpressing rat CB2R [AtT-20(rCB2R)] were treated with Fluo-4AM Ca^2+ dye and imaged by confocal microscopy (Figure 7). […] Ionomycin was added at the end of the experiment to saturate Ca^2+ levels.
Culture media (D10): Contains high glucose DMEM (450 mL, Gibco, #11965-092), FBS (50 mL, HyClone’s USDA tested, #SH30910), antibiotic Penicillin-strep (2.5 mL, Gibco, #15070).
Sterile filtered and aliquoted.
Culture media (D10) with hygromycin-B selection: Contains high glucose DMEM (450 mL, Gibco, #11965-092), FBS (50 mL, HyClone’s USDA tested, #SH30910), antibiotic Penicillin-strep (2.5 mL, Gibco, #15070). Sterile filtered and aliquoted. Selection maintained with Hygromycin-B (200 µg/mL, Thermo Fisher Scientific, #10687010).
Imaging buffer: Contains (in mM): 115 NaCl, 1.2 CaCl2, 1.2 MgCl2, 1.2 K2HPO4, 20 HEPES, 20 D-glucose. Adjusted to pH 7.4 with NaOH. Sterile filtered and aliquoted.
AtT-20 wild type (WT) and overexpressing rat CB2R cells (AtT-20(rCB2R)) were cultured in D10 culture media. […]
Fluorescence images were acquired with an Olympus Fluoview 1200 laser scanning confocal microscope using a 63× objective. […] For a direct comparison of the AtT-20(rCB2R) and wild type cells, one well of each genotype was labelled in parallel, and the identical settings on the confocal microscope were used between wells to accurately compare the dye fluorescence intensities.

Experiment [6] relates to CB2R-mediated phosphorylation of endogenous ERK1/2. Kind of experiment: AlphaScreen SureFire phospho-ERK assay in CB2R inducible HCC1954 cells. Type of experiment: cell-based. The note with it: 1 μM, 30 min, versus vehicle. Here is the method: Activation of CB2R is associated with downstream stimulation of mitogen-activated protein kinases, such as ERK1/2, mediated via either Gβγ or β-arrestins.[70],[71] We have tested representative high-affinity fluorescent probe (R)-2 for CB2R-mediated phosphorylation of endogenous ERK1/2 in a CB2R inducible breast cancer HCC1954 cell line using the AlphaScreen SureFire phospho-ERK assay (Figure 6). […] (1 μM), or (R)-2 (1 μM) for 30 min. Following cell lysis, lysates were incubated with a mixture containing donor and acceptor beads for 2 h at room temperature and the luminescence emission signal was measured.
For ERK phosphorylation assay an inducible HCC1954 breast cancer cell line expressing CB2R […]
ERK1/2 phosphorylation was measured using AlphaScreen® SureFire® p‐ERK 1/2 assay kit according to manufacturer instructions (PerkinElmer) . Briefly, HCC1954 cells were seeded at a density of 100 000 cells/well in poly -D-lysine coated 96-well plates and incubated in absence or presence of 1 µg/ mL doxycycline for 24 h. On the next day prior to assay, cells were serum-starved for 2 h at 37°C. […] The plate was incubated for 2 h and ERK1/2 phosphorylation was measured on CLARIOstar® Plus Multimode Plate Reader (BMG Labtech, Germany), using a ratio of 620/570 nm. […]
Statistical significance was determined by one-way ANOVA followed by Tukey's post hoc test.
In general terms: Alpha assays give light when donor and acceptor beads are brought close together.

Setting [7] is: normalized to agonist CP-55,940 response (100%) and basal level (0%).

T1 sequence (P34972 whole entry): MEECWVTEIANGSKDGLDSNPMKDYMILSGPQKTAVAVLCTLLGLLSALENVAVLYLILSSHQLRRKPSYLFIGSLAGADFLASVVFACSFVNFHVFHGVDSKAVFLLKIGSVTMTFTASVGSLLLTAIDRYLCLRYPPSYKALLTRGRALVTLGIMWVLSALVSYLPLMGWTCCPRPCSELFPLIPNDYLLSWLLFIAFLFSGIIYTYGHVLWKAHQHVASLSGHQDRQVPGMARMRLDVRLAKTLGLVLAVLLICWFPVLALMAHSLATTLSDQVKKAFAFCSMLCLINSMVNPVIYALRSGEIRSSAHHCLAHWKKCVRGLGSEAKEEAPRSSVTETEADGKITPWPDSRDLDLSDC

As to `COc1cc(C(C)(C)C(CCCCCN=[N+]=[N-])c2ccccc2)cc(OC)c1C1C=C(CN)C2CC1C2(C)C` [(R)-1], at hCB2R [1], the EC50 was 112 nM. Moreover, the “Emax (cAMP)” value at hCB2R [1] (setting [7]) is reported as “–44%”. Moreover, at hCB2R [2] (37 °C), the koff is reported as 13.9 10^–2 min^–1, the on-rate constant (kon) was 12.0 10^6 M^–1 min^–1, the “τ (receptor residence time)” value is given as 7.19 min and the equilibrium dissociation constant (Kd) turned out to be 11.6 nM. Moreover, the “β-arrestin recruitment (BRET signal)” value at hCB2R [3] is “Baseline BRET signal was retained”. This compound also came in with a Kd on hCB2R [4] of 39.1 nM. Further, the “fold greater binding affinity for CB2R in comparison to (S)-1” value on hCB2R [4] (ratio of Kd values) was determined as 12 fold. The EC50 at hCB2R [5] is 158 nM.
Regarding `COc1cc(C(C)(C)C(CCCCCN=[N+]=[N-])c2ccccc2)cc(OC)c1C1C=C(CN)C2CC1C2(C)C` [(S)-1], the EC50 at hCB2R [1] is 2690 nM. On hCB2R [1] (setting [7]), the Emax is -44%. For the same compound, at hCB2R [2] (37 °C), the koff was 115 10^–2 min^–1, the association rate constant (kon) was 157000 M⁻¹ s⁻¹, the “τ (receptor residence time)” value is on record as 0.87 min and binding was put at a Kd of 122 nM. Further, the “β-arrestin recruitment (BRET signal)” value on hCB2R [3] was “Baseline BRET signal was retained”. Besides, at hCB2R [4], binding was characterised by a dissociation constant (Kd) of 476 nM. In addition, the “fold increased potency of G protein recruitment over adenylyl cyclase inhibition” value at hCB2R [5] (Gi-CASE pEC50 versus cAMP pEC50) is 14 fold. In addition, the EC50 at hCB2R [5] is 191 nM.
For the compound `C#CCCC(=O)NCC1=CC(c2c(OC)cc(C(C)(C)C(CCCCCN=[N+]=[N-])c3ccccc3)cc2OC)C2CC1C2(C)C` [(S)-3/(R)-3], in the experiment with rat CB2R, the “intracellular Ca2+ (Fluo-4AM fluorescence)” value was “did not elicit increase in Fluo-4AM fluorescence”.
For the compound `C#CCCC(=O)NCC1=CC(c2c(OC)cc(C(C)(C)C(CCCCCN=[N+]=[N-])c3ccccc3)cc2OC)C2CC1C2(C)C` [(S)-3], at hCB2R [1], the EC50 was 40.7 nM. At hCB2R [1] (setting [7]), the “Emax (cAMP)” value was “–49%”. Further, at hCB2R [2] (37 °C), the koff is 4.96 10^–2 min^–1, the on-rate (kon) was 44.3 10^6 M^–1 min^–1, the “τ (receptor residence time)” value is given as 20.2 min and the equilibrium dissociation constant (Kd) came to 1.12 nM. Also, on hCB2R [2] (ΔG exp = RT ln(Kd), T = 310 K, from experimental Kd values), the “ΔG (Experimental)” value was “–12.7 kcal mol-1”. In addition, at hCB2R [3], the “β-arrestin recruitment (BRET signal)” value is on record as “Baseline BRET signal was retained”. At hCB2R [4], this compound displayed an equilibrium dissociation constant (Kd) of 2.1 nM. In addition, the EC50 on hCB2R [5] was 30.9 nM.
For the compound `CCCCCCC(C)(C)c1cc(OC)c([C@@H]2C=C(CO)[C@@H]3C[C@H]2C3(C)C)c(OC)c1` [HU-308, reference compound], the “intracellular Ca2+ (Fluo-4AM fluorescence)” value in the experiment on rat CB2R is listed as “triggered a robust fluorescence spike”.
In the case of `CCCC(C)(C)c1ccc2c(c1)OC(C)(C)[C@@H]1CC=C(C)C[C@@H]21` [JWH133], the ERK1/2 phosphorylation level result is “effectively stimulated ERK1/2 phosphorylation” in experiment [6] (CB2R expression induced with DOX (1 μg/mL)) and “remained the same” in experiment [6] (absence of CB2R expression inducer (DOX)).
For RO7568997 [reference compound], the “dissociation rate of fluorescent tracer” value at hCB2R [2] (tracer of competition-association assay, value fixed in fitting, 37 °C) turned out to be 1.13 min⁻¹.
